Tests used:
SK2 = biological target: SK2; design: method as in PMID 21940750; conditions: cited from earlier work
SPHK1 = biological target: T1, SPHK1 (Homo sapiens, UniProt Q9NYA1); test: Sphingosine kinase 1 activity assay (Adapta screening system); format: biochemical; conditions: 20 μM compound; for inhibition at 20 µM: read-out: SK1 inhibition; for SK1 inhibitory effect (in words): compared with PF-543
T1 construct: purchased Thermo Fisher Scientific

[1] = Liver microsomal stability, mouse (MLM); format: in vitro ADME; conditions: mouse liver microsomes, NADPH
Description: [Worded in the source for another species; this species is reported under the same test.] (§1) Microsomal incubations were conducted in triplicate in 0.1 M potassium phosphate buffer (pH 7.4) in a clean 1.5 mL eppendorf tube. […] HLM was added and the mixture was pre-incubated at 37 °C in a shaking incubator at approximately 350 rpm for 5 min under Thermo mixer (Eppendorf., Hamburg, Germany). Reactions were initiated by the addition of 1 mM NADPH and were then quenched by adding 40 µL of ice-cold acetonitrile containing 10 µM chlorproamide (CPP) as an internal standard at 0, 30 min. The incubation mixtures were then centrifuged at 15,000× g for 5 min at 4 °C. A 2 µL aliquot of the supernatant was directly injected into the LC-MS/MS system. The LC-MS/MS system consisted of the Nexera XR HPLC system (Shimadzu Co., Kyoto, Japan) coupled to the TSQ Vantage triple quadrupole mass spectrometer equipped with Xcalibur version 1.1.1 (Thermo Fisher Scientific Inc., Waltham, MA, USA).

[2] = Liver microsomal stability, human (HLM); format: in vitro ADME; conditions: human liver microsomes, NADPH
Description: as §1

[3] = Liver microsomal stability, dog (DLM); format: in vitro ADME; conditions: dog liver microsomes, NADPH
Description: [Worded in the source for another species; this species is reported under the same test.] as §1

[4] = Liver microsomal stability, rat (RLM); format: in vitro ADME; conditions: rat liver microsomes, NADPH
Description: [Worded in the source for another species; this species is reported under the same test.] as §1

SPHK2 = biological target: T2, SPHK2 (Homo sapiens, UniProt Q9NRA0); test: Sphingosine kinase 2 activity assay (Adapta screening system); format: biochemical; conditions: 20 μM compound
T2 construct: purchased Thermo Fisher Scientific
T2 sequence (Q9NRA0 1-654): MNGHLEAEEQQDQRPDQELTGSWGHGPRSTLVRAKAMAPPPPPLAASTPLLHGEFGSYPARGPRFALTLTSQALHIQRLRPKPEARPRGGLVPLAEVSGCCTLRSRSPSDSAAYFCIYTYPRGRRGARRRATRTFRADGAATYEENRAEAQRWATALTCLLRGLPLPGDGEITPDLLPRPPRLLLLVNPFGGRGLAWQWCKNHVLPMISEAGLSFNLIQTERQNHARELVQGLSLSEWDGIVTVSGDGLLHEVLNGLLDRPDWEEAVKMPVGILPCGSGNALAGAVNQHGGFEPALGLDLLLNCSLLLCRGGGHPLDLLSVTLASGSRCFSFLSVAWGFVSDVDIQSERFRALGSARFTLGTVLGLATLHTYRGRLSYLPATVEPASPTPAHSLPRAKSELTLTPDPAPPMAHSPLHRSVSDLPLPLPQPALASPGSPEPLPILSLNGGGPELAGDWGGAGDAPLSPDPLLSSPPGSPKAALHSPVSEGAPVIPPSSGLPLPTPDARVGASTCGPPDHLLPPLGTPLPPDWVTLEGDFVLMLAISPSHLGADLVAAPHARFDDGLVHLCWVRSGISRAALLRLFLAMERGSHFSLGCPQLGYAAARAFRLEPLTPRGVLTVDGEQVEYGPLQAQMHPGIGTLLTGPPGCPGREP
Description: […]. The sphingosine kinase 1 activity assay used 0.04–0.16 ng SPHK1, 50 μM sphingosine lipid substrate in 32.5 mM HEPES pH 7.5, 0.005% BRIJ 35, 5 mM MgCl2, 0.5 mM ethylene glycol-bis(β-aminoethyl ether)-N,N,N′,N′-tetraacetic acid (EGTA). The sphingosine kinase 2 activity assay detected 35 - 140 ng SPHK2, 50 μM sphingosine lipid substrate in 32.5 mM HEPES pH 7.5, 0.5 mM EGTA, 1.5 mM MgCl2.

T1 sequence (Q9NYA1 whole entry): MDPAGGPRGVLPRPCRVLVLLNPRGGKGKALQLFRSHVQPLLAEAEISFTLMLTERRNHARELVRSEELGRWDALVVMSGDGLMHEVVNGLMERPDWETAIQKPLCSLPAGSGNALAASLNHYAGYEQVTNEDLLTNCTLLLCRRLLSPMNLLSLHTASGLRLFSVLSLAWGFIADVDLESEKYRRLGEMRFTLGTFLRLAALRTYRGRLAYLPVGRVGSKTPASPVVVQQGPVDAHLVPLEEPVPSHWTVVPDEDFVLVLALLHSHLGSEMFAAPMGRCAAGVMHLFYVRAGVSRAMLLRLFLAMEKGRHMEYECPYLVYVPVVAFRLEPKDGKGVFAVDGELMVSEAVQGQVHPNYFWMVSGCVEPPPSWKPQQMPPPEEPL

CCCCCCCCc1ccc(CC[C@@](N)(CO)COC)cc1 [ROME, (R)-FTY720-OMe]
Ki (SK2): 16 µM

O=S(=O)(Cc1cccc(OCc2ccc(CN3CCC[C@@H]3CO)cc2)c1)c1ccccc1 [compound 2, (R)-(1-(4-((3-((Phenylsulfonyl)methyl)phenoxy)methyl)benzyl)pyrrolidin-2-yl)methanol]
inhibition at 20 µM (SPHK1): 100%

O=S(=O)(Cc1cccc(OCc2ccc(CN3CC[C@H](O)C3)cc2)c1)c1ccccc1 [compound 3, (S)-1-(4-((3-((Phenylsulfonyl)methyl)phenoxy)methyl)benzyl)pyrrolidin-3-ol]
inhibition at 20 µM (SPHK1): 100%

O=S(=O)(Cc1cccc(OCc2ccc(CN3CCC(O)CC3)cc2)c1)c1ccccc1 [compound 4, 1-(4-((3-((Phenylsulfonyl)methyl)phenoxy)methyl)benzyl)piperidin-4-ol]
SK1 inhibitory effect (in words) (SPHK1): reduced

O=S(=O)(Cc1cc(F)cc(OCc2ccc(CN3CCC[C@@H]3CO)cc2)c1)c1ccccc1 [compound 5, (R)-(1-(4-((3-Fluoro-5-((phenylsulfonyl)methyl)phenoxy)methyl)benzyl)pyrrolidin-2-yl)methanol]
MLM microsomal stability (% remaining during 30 min) [1]: 9.8 % remaining
HLM microsomal stability (% remaining during 30 min) [2]: 7.6 % remaining
DLM microsomal stability (% remaining during 30 min) [3]: 5.5 % remaining
inhibition at 20 µM (SPHK1): 100%
RLM microsomal stability (% remaining during 30 min) [4]: 6.8 % remaining

O=S(=O)(Cc1cc(F)cc(OCc2ccc(CN3CC[C@H](O)C3)cc2)c1)c1ccccc1 [compound 6, (S)-1-(4-((3-fluoro-5-((phenylsulfonyl)methyl)phenoxy)methyl)benzyl)pyrrolidin-3-ol]
inhibition at 20 µM (SPHK1): 100%

O=S(=O)(Cc1cc(F)cc(OCc2ccc(CN3CCC(O)CC3)cc2)c1)c1ccccc1 [compound 7, 1-(4-((3-Fluoro-5-((phenylsulfonyl)methyl)phenoxy)methyl)benzyl)piperidin-4-ol]
SK1 inhibitory effect (in words) (SPHK1): reduced

O=S(=O)(Cc1cc(O)cc(OCc2ccc(CN3CCC[C@@H]3CO)cc2)c1)c1ccccc1 [compound 8, (R)-3-((4-((2-(Hydroxymethyl)pyrrolidin-1-yl)methyl)benzyl)oxy)-5-((phenylsulfonyl)methyl)phenol]
SK2 inhibitory effect (in words) (SPHK2): showed an inhibitory effect against SK2 alone

O=S(=O)(Cc1cc(O)cc(OCc2ccc(CN3CCC(O)CC3)cc2)c1)c1ccccc1 [compound 10, 1-(4-((3-Hydroxy-5-((phenylsulfonyl)methyl)phenoxy)methyl)benzyl)piperidin-4-ol]
SK1 inhibitory effect (in words) (SPHK1): reduced
